From patent US9340590B2 (priority 2011, dated 2016) come the findings set out here.

Assay in all cases: cell-based
For one experiment, the target named is hNav1.3 (Homo sapiens, UniProt Q9NY46). The settings on record: IonWorks Quattro, read-out: IWQ Use Nav1.3.
A further experiment has as its target hNav1.5 (Homo sapiens, UniProt Q14524). Particulars: IonWorks Quattro, read-out: IWQ Use Nav1.5. On the technique in general: In patch-clamp work, channel activity is measured electrically.
Another experiment has as its target hNav1.7 (Homo sapiens, UniProt Q15858). The experiment is classed as cell-based. The settings on record: IonWorks Quattro, read-out: IWQ Use Nav1.7.
Setting [1] is: clamped to −110 mV, depolarized to −10 mV, 5 min after compound, n=2.

Like-named read-outs stand apart in the source and are kept apart here. Positions of bridges follow the written chain, without caps; N, C: chain ends. Residues, ends and D or L forms follow the SMILES beside them.

Sequence of hNav1.3 (Q9NY46 whole entry, looked up): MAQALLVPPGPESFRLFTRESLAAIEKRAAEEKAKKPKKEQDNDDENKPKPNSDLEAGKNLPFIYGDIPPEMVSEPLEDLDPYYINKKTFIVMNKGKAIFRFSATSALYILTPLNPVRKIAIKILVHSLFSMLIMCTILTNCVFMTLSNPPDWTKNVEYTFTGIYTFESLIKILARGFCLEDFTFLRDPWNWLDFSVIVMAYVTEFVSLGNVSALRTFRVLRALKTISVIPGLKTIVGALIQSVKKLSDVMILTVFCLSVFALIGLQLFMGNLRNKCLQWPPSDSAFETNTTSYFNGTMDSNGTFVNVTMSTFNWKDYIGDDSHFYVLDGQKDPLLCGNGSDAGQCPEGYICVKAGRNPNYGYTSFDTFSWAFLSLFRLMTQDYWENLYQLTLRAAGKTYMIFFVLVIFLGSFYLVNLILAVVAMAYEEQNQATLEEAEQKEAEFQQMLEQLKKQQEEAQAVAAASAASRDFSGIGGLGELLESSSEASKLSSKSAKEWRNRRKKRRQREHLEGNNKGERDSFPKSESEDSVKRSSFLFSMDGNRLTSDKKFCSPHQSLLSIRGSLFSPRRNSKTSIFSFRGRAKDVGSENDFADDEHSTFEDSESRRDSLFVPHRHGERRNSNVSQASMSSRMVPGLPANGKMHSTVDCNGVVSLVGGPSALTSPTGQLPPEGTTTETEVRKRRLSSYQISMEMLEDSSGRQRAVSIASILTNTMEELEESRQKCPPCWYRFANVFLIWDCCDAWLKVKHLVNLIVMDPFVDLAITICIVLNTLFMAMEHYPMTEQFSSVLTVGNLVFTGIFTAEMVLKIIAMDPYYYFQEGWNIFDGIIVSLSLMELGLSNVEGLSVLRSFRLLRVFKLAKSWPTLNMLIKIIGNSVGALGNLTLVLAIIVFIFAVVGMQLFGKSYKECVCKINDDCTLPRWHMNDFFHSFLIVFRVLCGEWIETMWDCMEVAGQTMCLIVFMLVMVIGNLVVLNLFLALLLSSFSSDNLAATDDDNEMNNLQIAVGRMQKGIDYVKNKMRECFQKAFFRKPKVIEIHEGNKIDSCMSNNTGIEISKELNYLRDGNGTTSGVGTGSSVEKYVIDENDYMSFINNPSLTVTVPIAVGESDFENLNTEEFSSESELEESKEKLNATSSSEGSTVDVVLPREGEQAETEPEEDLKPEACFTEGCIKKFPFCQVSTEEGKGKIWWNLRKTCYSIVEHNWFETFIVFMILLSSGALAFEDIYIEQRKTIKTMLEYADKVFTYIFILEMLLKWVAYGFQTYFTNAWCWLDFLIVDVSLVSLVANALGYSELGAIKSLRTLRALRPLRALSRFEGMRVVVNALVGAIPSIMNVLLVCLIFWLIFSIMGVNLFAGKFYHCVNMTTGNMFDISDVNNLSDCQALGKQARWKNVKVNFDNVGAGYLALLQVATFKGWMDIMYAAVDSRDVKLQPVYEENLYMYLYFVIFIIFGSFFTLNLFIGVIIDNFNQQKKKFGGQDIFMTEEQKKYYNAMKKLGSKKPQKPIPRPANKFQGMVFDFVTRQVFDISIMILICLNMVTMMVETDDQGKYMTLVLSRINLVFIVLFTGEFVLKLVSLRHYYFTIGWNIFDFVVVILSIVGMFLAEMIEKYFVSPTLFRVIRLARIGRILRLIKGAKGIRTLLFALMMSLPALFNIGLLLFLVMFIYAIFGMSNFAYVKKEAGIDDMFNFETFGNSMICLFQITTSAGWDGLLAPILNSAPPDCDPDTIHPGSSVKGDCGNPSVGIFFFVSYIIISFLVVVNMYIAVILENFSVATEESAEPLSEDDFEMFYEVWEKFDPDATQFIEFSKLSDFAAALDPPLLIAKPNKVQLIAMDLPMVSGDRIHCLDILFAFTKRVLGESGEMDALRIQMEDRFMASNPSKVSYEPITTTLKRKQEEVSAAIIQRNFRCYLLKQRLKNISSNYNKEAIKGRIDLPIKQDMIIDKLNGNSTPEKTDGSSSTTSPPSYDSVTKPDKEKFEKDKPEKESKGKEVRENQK
Sequence of hNav1.7 (Q15858 whole entry, looked up): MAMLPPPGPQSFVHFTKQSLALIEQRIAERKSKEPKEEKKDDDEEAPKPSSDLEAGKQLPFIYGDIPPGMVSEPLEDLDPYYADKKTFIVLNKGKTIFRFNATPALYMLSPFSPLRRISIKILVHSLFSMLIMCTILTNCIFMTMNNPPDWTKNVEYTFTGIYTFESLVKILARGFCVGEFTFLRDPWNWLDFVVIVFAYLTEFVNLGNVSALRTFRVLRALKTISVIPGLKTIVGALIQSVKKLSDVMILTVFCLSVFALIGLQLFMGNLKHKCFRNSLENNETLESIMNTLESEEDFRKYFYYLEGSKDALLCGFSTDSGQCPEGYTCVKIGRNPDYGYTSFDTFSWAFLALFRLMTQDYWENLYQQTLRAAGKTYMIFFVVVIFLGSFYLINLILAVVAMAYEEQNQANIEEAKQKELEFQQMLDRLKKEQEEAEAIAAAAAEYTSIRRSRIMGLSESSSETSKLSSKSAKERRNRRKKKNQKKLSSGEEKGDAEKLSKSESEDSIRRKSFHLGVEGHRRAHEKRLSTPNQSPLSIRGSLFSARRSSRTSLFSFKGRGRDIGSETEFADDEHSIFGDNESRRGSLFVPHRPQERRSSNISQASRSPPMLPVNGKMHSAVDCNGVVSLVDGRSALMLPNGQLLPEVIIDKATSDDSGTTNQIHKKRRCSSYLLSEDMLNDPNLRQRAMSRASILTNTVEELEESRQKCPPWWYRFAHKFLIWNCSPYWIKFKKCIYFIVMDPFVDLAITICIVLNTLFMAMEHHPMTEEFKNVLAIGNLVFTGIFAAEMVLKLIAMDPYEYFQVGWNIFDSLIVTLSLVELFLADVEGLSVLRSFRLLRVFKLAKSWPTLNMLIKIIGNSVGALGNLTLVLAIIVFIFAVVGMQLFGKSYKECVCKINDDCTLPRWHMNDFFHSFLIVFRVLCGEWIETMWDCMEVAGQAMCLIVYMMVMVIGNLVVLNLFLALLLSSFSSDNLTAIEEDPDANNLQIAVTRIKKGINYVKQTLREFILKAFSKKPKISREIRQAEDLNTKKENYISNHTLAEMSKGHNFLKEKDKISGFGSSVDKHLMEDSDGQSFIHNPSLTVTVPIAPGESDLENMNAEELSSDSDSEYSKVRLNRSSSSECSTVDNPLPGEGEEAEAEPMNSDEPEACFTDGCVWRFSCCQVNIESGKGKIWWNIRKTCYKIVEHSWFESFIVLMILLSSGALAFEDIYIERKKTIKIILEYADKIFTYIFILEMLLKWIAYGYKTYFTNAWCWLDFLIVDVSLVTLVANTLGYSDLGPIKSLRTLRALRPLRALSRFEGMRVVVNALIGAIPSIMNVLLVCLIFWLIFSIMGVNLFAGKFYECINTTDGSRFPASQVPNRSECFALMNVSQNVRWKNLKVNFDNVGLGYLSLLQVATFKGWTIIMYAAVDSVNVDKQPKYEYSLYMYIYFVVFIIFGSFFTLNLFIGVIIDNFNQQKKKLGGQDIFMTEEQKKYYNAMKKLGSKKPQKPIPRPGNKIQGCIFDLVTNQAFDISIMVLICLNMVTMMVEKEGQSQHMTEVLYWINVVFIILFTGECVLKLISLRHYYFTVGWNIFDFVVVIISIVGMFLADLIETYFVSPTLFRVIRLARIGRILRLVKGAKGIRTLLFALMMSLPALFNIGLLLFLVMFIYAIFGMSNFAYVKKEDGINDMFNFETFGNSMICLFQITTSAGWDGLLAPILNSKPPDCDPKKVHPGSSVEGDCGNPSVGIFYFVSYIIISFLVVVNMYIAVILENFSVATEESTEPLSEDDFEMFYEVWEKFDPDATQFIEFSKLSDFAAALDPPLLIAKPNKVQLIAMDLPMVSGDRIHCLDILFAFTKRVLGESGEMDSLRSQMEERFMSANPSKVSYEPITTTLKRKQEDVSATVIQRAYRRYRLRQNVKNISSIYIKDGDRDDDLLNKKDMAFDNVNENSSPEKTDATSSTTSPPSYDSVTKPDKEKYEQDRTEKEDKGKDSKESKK

`CC[C@H](C)[C@@H]1NC(=O)[C@@H]2CSSC[C@@H]3NC(=O)[C@H](C(C)C)NC(=O)[C@H](CC(C)C)NC(=O)[C@H](CC(N)=O)NC(=O)[C@@H]4CCCN4C(=O)[C@H](CCCNC(=N)N)NC(=O)[C@H](CSSC[C@H](NC(=O)[C@@H](N)CC(=O)O)C(=O)N[C@@H](CC(C)C)C(=O)NCC(=O)N[C@@H](Cc4ccccc4)C(=O)N(C)[C@@H](Cc4ccccc4)C(=O)N[C@@H](CCCNC(=N)N)C(=O)N[C@@H](CCCCN)C(=O)N2)NC(=O)[C@H](CSSC[C@@H](C(=O)N[C@@H](CCCCN)C(=O)N[C@@H](Cc2ccc(O)cc2)C(=O)N[C@H](C(=O)N[C@@H](Cc2ccccc2)C(N)=O)C(C)C)NC(=O)[C@H](Cc2c[nH]c4ccccc24)NC(=O)[C@H](CCCCN)NC(=O)[C@H](Cc2c[nH]cn2)NC(=O)[C@H]([C@@H](C)O)NC(=O)[C@H](CCCNC(=N)N)NC(=O)[C@H](CO)NC3=O)NC(=O)[C@H](CCCCN)NC(=O)[C@H](CC(=O)O)NC(=O)[C@H](CC(N)=O)NC(=O)[C@H](CC(=O)O)NC(=O)[C@@H]2CCCN2C1=O` [SEQ ID NO: 290]: the IC50 at hNav1.3 (setting [1]) worked out at 140 nM; at hNav1.5 (setting [1]), 10600 nM; on hNav1.7 (setting [1]), 240 nM.

For the compound `CC[C@H](C)[C@@H]1NC(=O)[C@@H]2CSSC[C@@H]3NC(=O)[C@H](C(C)C)NC(=O)[C@H](CC(C)C)NC(=O)[C@H](CC(N)=O)NC(=O)[C@@H]4CCCN4C(=O)[C@H](CCCNC(=N)N)NC(=O)[C@H](CSSC[C@H](NC(=O)[C@@H](N)CC(=O)O)C(=O)N[C@@H](CC(C)C)C(=O)NCC(=O)N[C@@H](Cc4ccccc4)C(=O)N[C@@H](Cc4cn(C)c5ccccc45)C(=O)N[C@@H](CCCNC(=N)N)C(=O)N[C@@H](CCCCN)C(=O)N2)NC(=O)[C@H](CSSC[C@@H](C(=O)N[C@@H](CCCCN)C(=O)N[C@@H](Cc2ccc(O)cc2)C(=O)N[C@H](C(=O)N[C@@H](Cc2ccccc2)C(N)=O)C(C)C)NC(=O)[C@H](Cc2c[nH]c4ccccc24)NC(=O)[C@H](CCCCN)NC(=O)[C@H](Cc2c[nH]cn2)NC(=O)[C@H]([C@@H](C)O)NC(=O)[C@H](CCCNC(=N)N)NC(=O)[C@H](CO)NC3=O)NC(=O)[C@H](CCCCN)NC(=O)[C@H](CC(=O)O)NC(=O)[C@H](CC(N)=O)NC(=O)[C@H](CC(=O)O)NC(=O)[C@@H]2CCCN2C1=O` [SEQ ID NO: 292], the values for the IC50 at hNav1.3 (setting [1]), at hNav1.5 (setting [1]) and on hNav1.7 (setting [1]) were 30 nM, 5660 nM and 40 nM, respectively.

For `CC[C@H](C)[C@@H]1NC(=O)[C@@H]2CSSC[C@@H]3NC(=O)[C@H](C(C)C)NC(=O)[C@H](CC(C)C)NC(=O)[C@H](CC(N)=O)NC(=O)[C@@H]4CCCN4C(=O)[C@H](CCCNC(=N)N)NC(=O)[C@H](CSSC[C@H](NC(=O)[C@@H](N)CC(=O)O)C(=O)N[C@@H](CC(C)C)C(=O)NCC(=O)N[C@@H](Cc4ccccc4)C(=O)N[C@@H](Cc4ccc(C(=O)O)cc4)C(=O)N[C@@H](CCCNC(=N)N)C(=O)N[C@@H](CCCCN)C(=O)N2)NC(=O)[C@H](CSSC[C@@H](C(=O)N[C@@H](CCCCN)C(=O)N[C@@H](Cc2ccc(O)cc2)C(=O)N[C@H](C(=O)N[C@@H](Cc2ccccc2)C(N)=O)C(C)C)NC(=O)[C@H](Cc2c[nH]c4ccccc24)NC(=O)[C@H](CCCCN)NC(=O)[C@H](Cc2c[nH]cn2)NC(=O)[C@H]([C@@H](C)O)NC(=O)[C@H](CCCNC(=N)N)NC(=O)[C@H](CO)NC3=O)NC(=O)[C@H](CCCCN)NC(=O)[C@H](CC(=O)O)NC(=O)[C@H](CC(N)=O)NC(=O)[C@H](CC(=O)O)NC(=O)[C@@H]2CCCN2C1=O` [SEQ ID NO: 293], the IC50 at hNav1.3 (setting [1]) came out at 13800 nM; at hNav1.5 (setting [1]), 11100 nM; on hNav1.7 (setting [1]), 15800 nM.

Consider `CC[C@H](C)[C@H](NC(=O)[C@H](CCC(=O)O)NC(=O)[C@H](Cc1ccc(O)cc1)NC(=O)[C@H](CCCCN)NC(=O)[C@@H]1CSSC[C@@H]2NC(=O)[C@H](CCCCN)NC(=O)[C@H](CC(=O)O)NC(=O)[C@H](CC(N)=O)NC(=O)[C@H](CC(=O)O)NC(=O)[C@@H]3CCCN3C(=O)[C@H](CO)NC(=O)[C@@H]3CSSC[C@H](NC(=O)[C@H](C(C)C)NC(=O)[C@H](CC(C)C)NC(=O)[C@H](CC(N)=O)NC(=O)[C@@H]4CCCN4C(=O)[C@H](CCCNC(=N)N)NC(=O)[C@H](CSSC[C@H](NC(=O)[C@@H](N)CC(=O)O)C(=O)N[C@@H](CC(C)C)C(=O)NCC(=O)N[C@@H](Cc4ccccc4)C(=O)N[C@@H](CCSC)C(=O)N[C@@H](CCCNC(=N)N)C(=O)N[C@@H](CCCCN)C(=O)N3)NC2=O)C(=O)N[C@@H](CO)C(=O)N[C@@H](CCCNC(=N)N)C(=O)N[C@@H](CCCCN)C(=O)N[C@@H](Cc2c[nH]cn2)C(=O)N[C@@H](CCCCN)C(=O)N[C@@H](Cc2c[nH]c3ccccc23)C(=O)N1)C(N)=O` [SEQ ID NO: 467] (H-DCLGFMRKCSPDNDKCCRPNLVCSRKHKWCKYEI-NH2; disulfide 2-17, 9-23, 16-30), for which the results for the IC50 at hNav1.3 (setting [1]), at hNav1.5 (setting [1]) and at hNav1.7 (setting [1]) were 1150 nM, 7210 nM and 4340 nM, respectively.

For `CC[C@H](C)[C@@H]1NC(=O)[C@@H]2CSSC[C@@H]3NC(=O)[C@H](C(C)C)NC(=O)[C@H](CC(C)C)NC(=O)[C@H](CC(N)=O)NC(=O)[C@@H]4CCCN4C(=O)[C@H](CCCNC(=N)N)NC(=O)[C@H](CSSC[C@H](NC(=O)[C@@H](N)CC(=O)O)C(=O)N[C@@H](CC(C)C)C(=O)NCC(=O)N[C@@H](Cc4ccccc4)C(=O)N[C@@H](CCSC)C(=O)N[C@@H](CCCNC(=N)N)C(=O)N[C@@H](C)C(=O)N2)NC(=O)[C@H](CSSC[C@@H](C(=O)N[C@@H](CCCCN)C(=O)N[C@@H](Cc2ccc(O)cc2)C(=O)N[C@H](C(=O)N[C@@H](Cc2ccccc2)C(N)=O)C(C)C)NC(=O)[C@H](Cc2c[nH]c4ccccc24)NC(=O)[C@H](CCCCN)NC(=O)[C@H](Cc2cnc[nH]2)NC(=O)[C@H]([C@@H](C)O)NC(=O)[C@H](CCCNC(=N)N)NC(=O)[C@H](CO)NC3=O)NC(=O)[C@H](CCCCN)NC(=O)[C@H](CC(=O)O)NC(=O)[C@H](CC(N)=O)NC(=O)[C@H](CC(=O)O)NC(=O)[C@@H]2CCCN2C1=O` [[Ala8]GpTx-1(1-34)] (H-DCLGFMRACIPDNDKCCRPNLVCSRTHKWCKYVF-NH2; disulfide 2-17, 9-23, 16-30), the IC50 at hNav1.3 (use-dependent block, hNav1.3) was determined as 410 nM; at hNav1.5 (use-dependent block, hNav1.5) it was 16800 nM; at hNav1.7 (use-dependent block, hNav1.7), 490 nM.

For the compound `CC[C@H](C)[C@@H]1NC(=O)[C@@H]2CSSC[C@@H]3NC(=O)[C@H](C(C)C)NC(=O)[C@H](CC(C)C)NC(=O)[C@H](CC(N)=O)NC(=O)[C@@H]4CCCN4C(=O)[C@H](CCCNC(=N)N)NC(=O)[C@H](CSSC[C@H](NC(=O)[C@@H](N)CC(=O)O)C(=O)N[C@@H](CC(C)C)C(=O)NCC(=O)N[C@@H](Cc4ccccc4)C(=O)N[C@@H](CCSC)C(=O)N[C@@H](CCCNC(=N)N)C(=O)N[C@@H](CCCNC(=N)N)C(=O)N2)NC(=O)[C@H](CSSC[C@@H](C(=O)N[C@@H](CCCCN)C(=O)N[C@@H](Cc2ccc(O)cc2)C(=O)N[C@H](C(=O)N[C@@H](Cc2ccccc2)C(N)=O)C(C)C)NC(=O)[C@H](Cc2c[nH]c4ccccc24)NC(=O)[C@H](CCCCN)NC(=O)[C@H](Cc2cnc[nH]2)NC(=O)[C@H]([C@@H](C)O)NC(=O)[C@H](CCCNC(=N)N)NC(=O)[C@H](CO)NC3=O)NC(=O)[C@H](CCCCN)NC(=O)[C@H](CC(=O)O)NC(=O)[C@H](CC(N)=O)NC(=O)[C@H](CC(=O)O)NC(=O)[C@@H]2CCCN2C1=O` [[Arg8]GpTx-1(1-34)] (H-DCLGFMRRCIPDNDKCCRPNLVCSRTHKWCKYVF-NH2; disulfide 2-17, 9-23, 16-30), the IC50 worked out at 120 nM at hNav1.3 (use-dependent block, hNav1.3); 13800 nM at hNav1.5 (use-dependent block, hNav1.5); 140 nM on hNav1.7 (use-dependent block, hNav1.7).

In the case of `CC[C@H](C)[C@@H]1NC(=O)[C@@H]2CSSC[C@@H]3NC(=O)[C@H](C(C)C)NC(=O)[C@H](CC(C)C)NC(=O)[C@H](CC(N)=O)NC(=O)[C@@H]4CCCN4C(=O)[C@H](CCCNC(=N)N)NC(=O)[C@H](CSSC[C@H](NC(=O)[C@@H](N)CC(=O)O)C(=O)N[C@@H](CC(C)C)C(=O)NCC(=O)N[C@@H](Cc4ccccc4)C(=O)N[C@@H](CCSC)C(=O)N[C@@H](CCCNC(N)=O)C(=O)N[C@@H](CCCCN)C(=O)N2)NC(=O)[C@H](CSSC[C@@H](C(=O)N[C@@H](CCCCN)C(=O)N[C@@H](Cc2ccc(O)cc2)C(=O)N[C@H](C(=O)N[C@@H](Cc2ccccc2)C(N)=O)C(C)C)NC(=O)[C@H](Cc2c[nH]c4ccccc24)NC(=O)[C@H](CCCCN)NC(=O)[C@H](Cc2c[nH]cn2)NC(=O)[C@H]([C@@H](C)O)NC(=O)[C@H](CCCNC(=N)N)NC(=O)[C@H](CO)NC3=O)NC(=O)[C@H](CCCCN)NC(=O)[C@H](CC(=O)O)NC(=O)[C@H](CC(N)=O)NC(=O)[C@H](CC(=O)O)NC(=O)[C@@H]2CCCN2C1=O` [[Cit7]GpTx-1(1-34)], the IC50 was 560 nM at hNav1.3 (use-dependent block, hNav1.3); 14400 nM at hNav1.5 (use-dependent block, hNav1.5); 630 nM on hNav1.7 (use-dependent block, hNav1.7).

`CC[C@H](C)[C@@H]1NC(=O)[C@@H]2CSSC[C@@H]3NC(=O)[C@H](C(C)C)NC(=O)[C@H](CC(C)C)NC(=O)[C@H](CC(N)=O)NC(=O)[C@@H]4CCCN4C(=O)[C@H](CCCNC(=N)N)NC(=O)[C@H](CSSC[C@H](NC(=O)[C@@H](N)CC(=O)O)C(=O)N[C@@H](CC(C)C)C(=O)NCC(=O)N[C@@H](Cc4ccccc4)C(=O)N[C@@H](CCSC)C(=O)N[C@@H](CCCCN)C(=O)N[C@@H](CCCCN)C(=O)N2)NC(=O)[C@H](CSSC[C@@H](C(=O)N[C@@H](CCCCN)C(=O)N[C@@H](Cc2ccc(O)cc2)C(=O)N[C@H](C(=O)N[C@@H](Cc2ccccc2)C(N)=O)C(C)C)NC(=O)[C@H](Cc2c[nH]c4ccccc24)NC(=O)[C@H](CCCCN)NC(=O)[C@H](Cc2c[nH]cn2)NC(=O)[C@H]([C@@H](C)O)NC(=O)[C@H](CCCNC(=N)N)NC(=O)[C@H](CO)NC3=O)NC(=O)[C@H](CCCCN)NC(=O)[C@H](CC(=O)O)NC(=O)[C@H](CC(N)=O)NC(=O)[C@H](CC(=O)O)NC(=O)[C@@H]2CCCN2C1=O` [[Lys7]GpTx-1(1-34)] (H-DCLGFMKKCIPDNDKCCRPNLVCSRTHKWCKYVF-NH2; disulfide 2-17, 9-23, 16-30): the IC50 on hNav1.3 (use-dependent block, hNav1.3) was 470 nM; on hNav1.5 (use-dependent block, hNav1.5), 23300 nM; at hNav1.7 (use-dependent block, hNav1.7) it was 530 nM.
